Results taken from patent US20100062992A1 (SuperGen, Inc., priority 2004, published 2010).
Structures can show the parent of a compound that is named as a salt.

What was measured:
[1] = Hygroscopicity, % weight gain in 1 week at 56% and 98% relative humidity; format: physicochemical; details: one week at 56% / 98% RH
[2] = 0.05 M phosphate buffer, pH 7.0 and 2.5

SMILES: Nc1ncn([C@@H]2O[C@H](CO)C(O)C2O)c(=O)n1 (stereo partly shown) [Compound 19, azacitidine mesylate]
- hygroscopicity compared with free base (in words) [1]: more hydroscopic than free azacitidine
- rate of dissolution compared with free base (in words) (1.0 mg in water): less than the free azacitidine base
- Dissolution In water (1.0 mg/mL) (time to dissolve, with Sonication): 1 min
- solution stability compared with free base (in words) [2]: slightly less than the free azacitidine base
